Assay results published in patent US20130096189A1, “USE OF GLABRANIN FOR STIMULATING HAIR GROWTH” (priority 2010, published 2013).

Tested on: Fibroblast cells from the NIH3T3D4 cell line
Test: In-vitro fibroblast cell growth in low serum (colourimetric cell number, Promega CellTiter), with or without potassium channel blockers
Type: cell-based
Details: for Data (absorbance at 450 nM), cell number: 5 days, mean ± SD, 8 replicates
Protocol: The assay described hereinbelow looks at the effect of an active on potentiation of cell growth in a low nutrient environment, ie at the effects of the active on cell growth factors which are mitogenic, rather than on the identification of an active which itself is mitogenic.
Glabranin (TimTec) was added in 50 μL of dimethylsulphoxide (DMSO) and vortexed to dissolve. […] of the glabranin in DMSO was added to Dulbeccos Minimum Essential Medium (DMEM) containing 2% v/v foetal calf serum (FCS) to give a 10 μg/mL glabranin solution. Serial dilutions were prepared using DMSO/DMEM/FCS as above. 1 mM minoxidil in DMSO/DMEM/FCS as above was used as a positive control. A DMSO control in DMEM containing 2% v/v FCS was also prepared.
Fibroblast cells from the NIH3T3D4 cell line (European collection of animal cell cultures, Health Protection Agency Porton Down, England) were cultured in DMEM media in the absence of antibiotics. The cells were removed using 10 mL of 0.25% w/w trypsin and 0.038% w/v EDTA in Hank's medium for 5 minutes, 10 mL DMEM containing 10% v/v FCS was added and the cells were spun down at 1000 rpm for 2 minutes. After removing the medium the cells were washed in 10 mL of DMEM containing 10% v/v FCS and spun at 1000 rpm for 2 minutes. The cells were then resuspended in 10 mL of DMEM containing 10% v/v FCS and counted using a cell counting chamber. A suspension of cells containing 5000 cells per 100 μL (50,000 cells per mL) was prepared and 100 μL of the cell suspension was plated out into a 96 well plate. The cells were allowed to adhere overnight in an incubator at 37 degrees centigrade in an atmosphere of 5% v/v CO2 in air. After washing the wells thrice with DMEM (without FCS), 100 μL of the test solution (containing […] glabranin per mL DMSO/DMEM/FCS with or without 10 μM glibenclamide (a potassium ion channel blocker) and 0.1 mM tetraethylammonium (TEA is a potassium ion channel blocker which directly binds to the channel) was added to each of eight wells. Fresh media containing glabranin was added every day for 5 days.
Cell numbers were determined after 5 days in test medium using a colourimetric method (Promega CellTiter Reagent from Promega). 20 μL Reagent was added to each well and the plate incubated as before for one hour.

| Compound | Data (absorbance at 450 nM), cell number (Minoxidil 75 μM in 2% FCS/DMSO) | Data (absorbance at 450 nM), cell number (glabranin 0.01 μg/ml in 2% FCS/DMSO) | Data (absorbance at 450 nM), cell number (glabranin 0.1 μg/ml in 2% FCS/DMSO) | Data (absorbance at 450 nM), cell number (glabranin 1 μg/ml in 2% FCS/DMSO) | potassium channel opening leading to fibroblast cell growth (conclusion from table 1) (growth increase reversed by potassium channel blockers) |
| --- | --- | --- | --- | --- | --- |
| Nc1cc(N2CCCCC2)nc(N)[n+]1[O-] [Minoxidil, reference compound] | 0.36 ± 0.04 |  |  |  |  |
| CC(C)=CCc1c(O)cc(O)c2c1O[C@H](c1ccccc1)CC2=O [glabranin, (2S)-5,7-dihydroxy-8-(3-methylbut-2-enyl)-2-phenyl-2,3-dihydrochromen-4-one] |  | 0.34 ± 0.02 | 0.34 ± 0.02 | 0.31 ± 0.02 | potassium channel opener |
